This is an account of results in patent US20240269298A1, “PHOSPHONYL DERIVATIVE, AND COMPOSITION AND PHARMACEUTICAL APPLICATION THEREOF” (XIZANG HAISCO PHARMACEUTICAL CO., LTD., priority 2021, published 2024).

Each structure is given as a SMILES string. Read-outs that look alike come from different tables or passages of the source.

Data set [1] in a line: Pharmacokinetic test in mice. It counts as in vivo. Particulars: male, ICR, mouse, po, administration i.g. (10 mg/kg), plasma. Put shortly: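 Male ICR mice (20-25 g), fasted 12-14 h before dosing and fed 4 h after, received a single intravenous or intragastric dose. Orbital plasma sampled from 0 to 24 h (5 min-24 h points); LC-MS/MS quantitation for PK parameters and bioavailability.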

The subject of data set [2] is NCI-H1975 EGFR-L858R-T790M-C797S cells. As to the kind of experiment: Inhibitory activity on proliferation of NCI-H1975 EGFR-L858R-T790M-C797S cells (CellTiter-Glo, 72 h). Format: cell-based. Particulars: Homo sapiens. Put shortly:
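Cells (1500/well) exposed to graded compound concentrations for 72 h at 37 °C in hygromycin-free RPMI1640 + 10% FBS, 0.1% DMSO vehicle. Viability by CellTiter-Glo luminescence relative to vehicle; IC50 from nonlinear sigmoidal dose-survival fit.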
For orientation: ATP-based viability assays read luminescence as a measure of living cells.

For `COc1cc(N2CCC(CN3CCN(c4ccc5c(c4)C(=O)N(C4CCC(=O)NC4=O)C5=O)CC3)CC2)c(-c2cnn(C)c2)cc1Nc1ncc(Br)c(Nc2ccc(C3CC3)cc2P(C)(C)=O)n1` (centres unmarked) [Compound 106, 5-(4-((1-(4-((5-bromo-4-((4-cyclopropyl-2-(dimethylphosphoryl)phenyl)amino)pyrimidin-2-yl)amino)-5-methoxy-2-(1-methyl-1H-pyrazol-4-yl)phenyl)piperidin-4-yl)methyl)piperazin-1-yl)-2-(2,6-dioxopiperidin-3-yl)isoindoline-1,3-dione], in data set [1], the AUC – broadly, concentration integrated over time – was 145 µg·h/mL and the half-life – broadly, the time needed for the level to fall by half in the phase considered – is 18 h. Also, the IC50 – broadly, the concentration needed to halve the response being measured – in data set [2] (read-out: IC50 (class symbol)) was less than 0.2 µM. The IC50 in data set [2] (read-out: IC50 (value)) is 0.112 µM.
In the same order, the values of `COc1cc(N2CCC(CN3CCN(c4ccc5c(c4)C(=O)N(C4CCC(=O)NC4=O)C5=O)CC3)CC2)c(-c2cnn(C)c2)cc1Nc1ncc(Cl)c(Nc2ccc(C3CC3)cc2P(C)(C)=O)n1` (centres unmarked) [Compound 107, 5-(4-((1-(4-((5-chloro-4-((4-cyclopropyl-2-(dimethylphosphoryl)phenyl)amino)pyrimidin-2-yl)amino)-5-methoxy-2-(1-methyl-1H-pyrazol-4-yl)phenyl)piperidin-4-yl)methyl)piperazin-1-yl)-2-(2,6-dioxopiperidin-3-yl)isoindoline-1,3-dione] are 130 µg·h/mL, 13.9 h, less than 0.2 µM and 0.045 µM.
